Reference: the supplement of paper PMC3493320
Several values for one entry are separate records, joined by “and”; a condition that tells them apart may be missing. Equal entries are not always repeated.

Columns and labels:
NCI-H295R [1] = experiment: maximal response (efficacy) relative to DMSO (0%) and doxorubicin (-100%); higher = less growth inhibition; conditions: 48 h
NCI-H295R [2] = experiment: IC50 (antiproliferative, ATP content); conditions: 48 h

| SMILES | IC50 (NCI-H295R [2]) | maximal response (NCI-H295R [1]) |
| --- | --- | --- |
| [Na+].[Na+].[O-]C(=O)c4c(Cl)c(Cl)c(Cl)c(Cl)c4C=2c3cc(I)c([O-])c(I)c3OC=1C=2\C=C(\I)C(=O)C=1I | 23.7 µM | -153% |
| COc1cc2c(cc1O)CCN[C@]21CS[C@@H]2c3c(OC(C)=O)c(C)c4c(c3[C@H](COC1=O)N1[C@@H]2[C@H]2c3c(cc(C)c(OC)c3O)C[C@@H]([C@@H]1O)N2C)OCO4 | 0.0094 µM | -117% |
| O=C(N[C@H](C(N[C@H](C(N[C@@H](C(N[C@H](C(N[C@@H](CCCNC(N)=N)C(N6CCC[C@H]6[C@](NCC)=O)=O)=O)CC(C)C)=O)CC4=CNC5=C4C=CC=C5)=O)CC3=CC=C(O)C=C3)=O)CO)[C@@H](NC([C@@H](N[C@]([C@@H](N8)CCC8=O)=O)CC7=CNC=N7)=O)CC1=CNC2=C1C=CC=C2.O=C(C)O | 5.31 µM | -124% |
| COC(COC(N)=O)C1=C(N2CC2)C(=O)C(C)=C(N2CC2)C1=O (stereo not given) | 0.75 µM | -120% |
| Cc1cc(O)c2c3c4c(cc(O)c13)C(C)(C)C(=O)c1c(O)cc(O)c(c1-4)C2=O | 3.35 µM | -103% |
| CC[C@H]1CN2CCc3cc(OC)c(OC)cc3[C@@H]2C[C@@H]1C[C@H]1NCCc2cc(OC)c(OC)cc21 | 2.11 µM | -130% |
| COc1cc([C@@H]2c3cc4c(cc3C(O[C@@H]3O[C@@H]5COC(c6cccs6)O[C@H]5[C@H](O)[C@H]3O)C3COC(=O)[C@@H]32)OCO4)cc(OC)c1O (stereo not given in full) | 8.41 µM | -94.9% |
| [O-]C(C(I)=C2)=C(I)C=C2/C(C(C=CC=C3)=C3C([O-])=O)=C1\C=C(I)C(C(I)=C1)=O.[Na+].[Na+] | 26.6 µM | -104% |
| [Cl-].[Cl-].[Hg+2] | 11.9 µM | -127% |
| Cc1cc(-c2ccc(N=Nc3c(S(=O)(=O)[O-])cc4cc(S(=O)(=O)[O-])cc(N)c4c3O)c(C)c2)ccc1N=Nc1c(S(=O)(=O)[O-])cc2cc(S(=O)(=O)[O-])cc(N)c2c1O.[Na+].[Na+].[Na+].[Na+] | 11.9 µM | -131% |
| CC(C)(C)c1ccc(C(=O)CCCN2CCC(OC(c3ccccc3)c3ccccc3)CC2)cc1 | 16.8 µM | -139% |
| C[C@H]1CC[C@]2(NC1)O[C@H]1C[C@H]3[C@@H]4CC[C@H]5C[C@@H](O[C@@H]6O[C@H](CO)[C@H](O[C@@H]7O[C@H](CO)[C@@H](O)[C@H](O[C@@H]8OC[C@@H](O)[C@H](O)[C@H]8O)[C@H]7O[C@@H]7O[C@H](CO)[C@@H](O)[C@H](O)[C@H]7O)[C@H](O)[C@H]6O)CC[C@]5(C)[C@H]4CC[C@]3(C)[C@H]1[C@@H]2C | 1.88 µM | -127% |
| CO[C@@]12[C@H](COC(N)=O)C3=C(C(=O)C(C)=C(N)C3=O)N1C[C@@H]1N[C@@H]12 | 26.6 µM | -132% |
| CCc1nc(N)nc(N)c1-c1ccc(Cl)cc1 | 0.75 µM | -81.4% |
| O=[C@@]([C@@H]4C3=CC(C(C1=CC=CC(O)=C12)=O)=C(C(O)=C3[C@@H](O[C@@H]7O[C@H]([C@H]([C@@H](N(C)C)C7)O[C@H](O6)C[C@@H]([C@@H]([C@@H]6C)O[C@H](O5)CCC([C@@H]5C)=O)O)C)C[C@](CC)4O)C2=O)OC.Cl | 0.944 µM | -122% |
| Nc1ccc2cc3ccc(N)cc3nc2c1.Nc1ccc2cc3ccc(N)cc3nc2c1.O=S(=O)(O)O | 18.8 µM | -138% |

| SMILES | IC50 (NCI-H295R [2]) | maximal response (NCI-H295R [1]) |
| --- | --- | --- |
| O=C([C@](C(C=C4OC)=C(C=C4OC)OC3)([H])[C@]3([H])O2)C(C=C5)=C2C1=C5O[C@@H]([C@@](C)=C)C1 | 0.75 µM | -69.2% |
| CS(=O)(=O)O.Cc1ccc(NC(=O)c2ccc(CN3CCN(C)CC3)cc2)cc1Nc1nccc(-c2cccnc2)n1 | 18.8 µM | -61.7% |
| C[C@H]1CC[C@@H]2[C@@H](C)[C@H]3[C@H](C[C@H]4[C@@H]5CC=C6CC(O[C@@H]7O[C@H](CO)[C@H](O)[C@H](O[C@@H]8O[C@H](CO)[C@@H](O)[C@H](O)[C@H]8O)[C@H]7O[C@H]7O[C@@H](C)[C@H](O)[C@@H](O)[C@H]7O)CC[C@]6(C)[C@H]5CC[C@]34C)N2C1 (stereo not given in full) | 18.8 µM | -135% |
| C=CCNC1=C2C[C@@H](C)C[C@H](OC)[C@H](O)[C@@H](C)/C=C(\C)[C@H](OC(N)=O)[C@@H](OC)/C=C\C=C(/C)C(=O)NC(=CC1=O)C2=O | 8.41 µM | -105% |
| O=c1oc2ccccc2c(O)c1C(CC(O)c1ccc(-c2ccc(Br)cc2)cc1)c1ccccc1 (stereo not given) | 9.44 µM | -115% |
| O=C1C2CC=CCC2C(=O)N1SC(Cl)(Cl)Cl (stereo not given) | 16.8 µM | -105% |
| N=C(N)NN=C(/C=C/c1ccc([N+](=O)[O-])o1)/C=C/c1ccc([N+](=O)[O-])o1 | 5.31 µM | -124% |
| CC(=O)[C@]1(O)Cc2c(O)c3c(c(O)c2[C@@H](O[C@H]2C[C@H](N)[C@H](O)[C@H](C)O2)C1)C(=O)c1c(O)cccc1C3=O | 1.19 µM and 1.88 µM | -123% and -125% |
| [O-]n1ccccc1=S.[O-]n1ccccc1=S.[Zn+2] | 2.66 µM | -125% |
| [C@@]32([C@@]([C@@H](/C1=C/C(=O)OC1)CC2)([C@H](O)C[C@H]4[C@H]3CC[C@H]9[C@@]4(CC[C@H](O[C@@H]5O[C@@H]([C@H]([C@H](C5)O)O[C@@H]8O[C@@H]([C@@H](O[C@@H]7O[C@@H]([C@@H](O[C@H]6[C@@H]([C@@H](O)[C@@H]([C@H](O6)CO)O)O)[C@H](C7)OC(=O)C)C)C(C8)O)C)C)C9)C)C)O (stereo not given in full) | 0.299 µM | -118% |
| CC(C)C[C@@H]1NC(=O)[C@H](CCCN)NC(=O)[C@H](C(C)C)NC(=O)[C@@H]2CCCN2C(=O)[C@@H](Cc2ccccc2)NC(=O)[C@H](CC(C)C)NC(=O)[C@H](CCCN)NC(=O)[C@H](C(C)C)NC(=O)[C@@H]2CCCN2C(=O)[C@@H](Cc2ccccc2)NC1=O | 8.41 µM | -121% |
| OB(O)[O][Hg][c]1ccccc1 | 3.76 µM | -130% |
| CCc1oc2ccccc2c1C(=O)c1cc(I)c(O)c(I)c1 | 7.5 µM | -101% |
| Cc1cc2c(C(C)C)c(O)c(O)c(C=O)c2c(O)c1-c1c(C)cc2c(C(C)C)c(O)c(O)c(C=O)c2c1O | 10.6 µM | -127% |
| COc1cccc2c1C(=O)c1c(O)c3c(c(O)c1C2=O)C[C@@](O)(C(C)=O)C[C@@H]3O[C@H]1C[C@H](N)[C@H](O)[C@H](C)O1 | 10.6 µM | -126% |

More lines, main results first:

| IC50 (NCI-H295R [2]) | SMILES | maximal response (NCI-H295R [1]) |
| --- | --- | --- |
| 13.3 µM | CCCCCCCCCCCCCCCCOCCOCCOCCOCCOCCOCCOCCOCCOCCOCCOCCOCCOCCOCCOCCOCCOCCOCCOCCOCCO | -124% |
| 0.944 µM | CO[C@H](C(=O)[C@@H](O)[C@@H](C)O)[C@@H]1Cc2cc3cc(O[C@H]4C[C@@H](O[C@H]5C[C@@H](O)[C@H](O)[C@@H](C)O5)[C@@H](O)[C@@H](C)O4)c(C)c(O)c3c(O)c2C(=O)[C@H]1O[C@H]1C[C@@H](O[C@H]2C[C@@H](O[C@H]3C[C@](C)(O)[C@H](O)[C@@H](C)O3)[C@H](O)[C@@H](C)O2)[C@H](O)[C@@H](C)O1 | -118% |
| 15 µM | CN(C)c1ccc2nc3ccc(N(C)C)cc3[s+]c2c1.[Cl-] | -109% |
| 1.06 µM | Nc1nc2nc[nH]c2c(=S)[nH]1 | -74.1% |
| 6.68 µM | Oc1c(Br)cc(Br)c2cccnc12 | -80.8% |
| 26.6 µM | CC1(CN2CCC(n3c(=O)[nH]c4ccccc43)CC2)OCc2ccccc2-n2cccc21 (stereo not given) | -96.9% |
| 11.9 µM | [O-]S(C1=C(O)C(\C(C4=CC=C(N(C)C)C=C4)=C(C=C2)/C=C/C2=[N+](C)\C)=C(C=C3)C(C=C3S([O-])(=O)=O)=C1)(=O)=O.[Na+] | -103% |
| 3.76 µM | O=C1C(=O)c2ncccc2-c2cccnc21 | -63% |
| 23.7 µM | C=C1/C(=C\C=C2/CCC[C@]3(C)[C@@H]([C@H](C)CCCC(C)C)CC[C@@H]23)C[C@@H](O)C[C@@H]1O | -142% |
| 23.7 µM | CC[C@@H](C(=O)[C@@H](C)[C@@H](O)[C@H](C)CCc1ccc(C)c(O)c1C(=O)[O-])[C@H]1O[C@](CC)([C@H]2CC[C@](O)(CC)[C@H](C)O2)C[C@@H]1C.[Na+] | -159% |
| 1.88 µM | CC[P](CC)(CC)=[Au][S][C@H]1O[C@@H](COC(C)=O)[C@H](OC(C)=O)[C@@H](OC(C)=O)[C@@H]1OC(C)=O | -128% |
| 13.3 µM | CCCCC(=O)OCC(=O)[C@]1(O)Cc2c(O)c3c(c(O)c2[C@@H](O[C@H]2C[C@H](NC(=O)C(F)(F)F)[C@H](O)[C@H](C)O2)C1)C(=O)c1c(OC)cccc1C3=O | -71.8% |
| 21.1 µM | Cc1cc(O)c2ccccc2c1O | -137% |
| 0.188 µM | O=C\1OC/C(=C/1)[C@H]2CC[C@@]8(O)[C@]2(C)[C@H](O)C[C@H]3[C@H]8CC[C@@H]4C[C@H](CC[C@]34C)O[C@@H]7O[C@H](C)[C@@H](O[C@H]6C[C@H](O)[C@H](O[C@H]5C[C@H](O)[C@H](O)[C@@H](C)O5)[C@@H](C)O6)[C@@H](O)C7 | -111% |
| 9.44 µM | CCCCCCCCCCC[C@@H](C[C@@H]1OC(=O)[C@H]1CCCCCC)OC(=O)C(CC(C)C)NC=O (stereo not given in full) | -66.3% |
| 6.68 µM | COc1ccc(-c2ccc3cc(C(=O)O)ccc3c2)cc1C12CC3CC(CC(C3)C1)C2 | -122% |
| 0.299 µM and 0.335 µM | CC(C)C[C@H](NC(=O)[C@H](Cc1ccccc1)NC(=O)c1cnccn1)B(O)O | -74.3% and -77.1% |
| 5.31 µM | Oc1c(Cl)cc(Cl)c2cccnc12 | -105% |
| 4.73 µM | O=C(Nc1ccc(Oc2ccc(Cl)cc2)c(Cl)c1)c1cc(I)cc(I)c1O | -137% |
